{
  "source": "paper PMC6383986",
  "about": "“Fragment-Based Covalent Ligand Screening Enables Rapid Discovery of Inhibitors for the RBR E3 Ubiquitin Ligase HOIP” (Journal of the American Chemical Society, 2019)",
  "key": {"[1]": {"molecular_target": "T1, 3 × FLAG-tagged HOIP RBR in HEK293T cells (Homo sapiens, UniProt Q96EP0)", "T1 construct": "expressed in transfected cells; host or cells: HEK293T, transient, modified pcDNA3.1(+)", "T1 sequence (Q96EP0 697-1072)": "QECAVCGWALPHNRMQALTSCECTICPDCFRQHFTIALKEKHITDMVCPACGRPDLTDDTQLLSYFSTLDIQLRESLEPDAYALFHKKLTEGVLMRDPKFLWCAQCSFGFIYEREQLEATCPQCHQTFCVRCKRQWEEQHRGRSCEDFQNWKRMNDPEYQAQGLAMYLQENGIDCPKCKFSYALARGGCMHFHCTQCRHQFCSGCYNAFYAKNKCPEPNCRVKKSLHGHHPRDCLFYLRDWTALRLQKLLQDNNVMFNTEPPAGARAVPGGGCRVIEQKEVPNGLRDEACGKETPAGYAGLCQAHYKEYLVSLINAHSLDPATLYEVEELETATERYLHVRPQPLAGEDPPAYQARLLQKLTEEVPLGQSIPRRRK", "test": "ABPP in-gel fluorescence, competition with TCO probe (15)", "assay_type": "cell-based", "details": "30 μM 7 h pretreatment, then 3 μM (15) 2 h; vs (11i), (17), DMSO", "source_text": "PCR purification kit QIAquick Qiagen 28104\nMaxiprep Kit Endofree plasmid Maxi Kit Qiagen 12362\nE coli Competent DH5α New England C2987H\nE coli Competent BL21 GOLD(DE3) Agilent 230132\nLDS loading buffer NuPAGE 4× LDS loading buffer Invitrogen NP0008\nTrypsin Cell Culture TE Trypsin Gibco R-001-100\nTrypsin Sequencing Grade Modified Trypsin Promega V511A\nChymotrypsin Sequencing Grade Chymotrypsin Promega V106A\nCy5-Tetrazine Fluorescent probe for IEDDA click chemistry DC Biosciences CCR-1189-1 Tz-PEG4-Biotin Tetrazine linked biotin Jena Bioscience CLK-027-25\nNeutrAvidin beads High capacity NeutrAvidin agarose resin Thermo 29204 […]\n5.1 Activity-based protein profiling – In-gel fluorescence […]\nHEK293T cells were cultured and transfected with 3×FLAG-tagged HOIP RBR wild type or C885A mutant, or mock as described in section 4.8 above. […] The cells were harvested and lysed (50 mM Tris-HCl, pH 7.5, 1.5 mM MgCl2, 150 mM NaCl, 5% glycerol, 0.8% v/v IGEPAL-CA630, 25 mM NaF, 1 mM Na3VO4, complete protease inhibitor), and the protein concentration was determined by the BCA assay as described in section […]\n50 µL. The lysates were incubated at 23 °C, 600 rpm (Eppendorph Thermomixer) for 1 h, then analyzed by SDS PAGE (section 4.5) and in-gel fluorescence (LI-COR) at 700 nm, and by Western Blot as described in section 4.6 (Figure 6E and Supplementary Figures S15, S16). […]"}, "[2]": {"test_system": "HEK293T cells overexpressing full-length HOIP, HOIL-1L, and SHARPIN", "test": "CellTiter-Glo Luminescent cell viability assay, transfected cells", "assay_type": "cell-based", "details": "17 h", "experimental": "Thurston, Imperial College London. 2.3 × 10^6 cells were seeded into 100 mm Petri dishes in DMEM media supplemented with 10% v/v FBS (Biosera) and 1% v/v L-glutamine/penicillin/streptomycin (Sigma-Aldrich) and incubated at 37 °C overnight. The following morning the cells were transfected using either 6 µg pcDNA3 or 4.5 µg HOIP, 0.3 µg HOIL-1L and 1.2 µg SHARPIN as well as 450 ng pRDII Luc and 180 ng pRLTK (Promega) plasmids. 7 h after transfection, the cells were trypsinized and re-suspended in DMEM media supplemented with 1% v/v FBS (Biosera) and 1% v/v L-glutamine/penicillin/streptomycin (Sigma-Aldrich). […]\nReporter assays: After incubating the plates for 17 h, Firefly and Renilla Luciferase activity was analyzed using the Dual-Luciferase® Reporter Assay System (Promega) and a BertholdTech […]\nwith Mikrowin 2000 software version 4.41: using its injectors to inject 100 µL LAR II and 100 µL Stop&Glo (see manufacturer’s instructions; Promega #E1960). NF-κB regulated luciferase activity was first normalized to Renilla luciferase activity and then the fold activation relative to cells transfected with empty vector calculated. […]\nCell viability assays: After incubating the plates for 17 h in the presence of compound, cell viability was determined using the CellTiter-Glo® Luminescent Cell Viability Assay according to manufacturer’s instructions (Promega #G7571). […]"}},
  "data": [
    {"smiles": "COC(=O)/C=C/CNC(=O)c1cc2c([nH]c1=O)CCCC2", "note": "[Compound 11a]", "values": [
      {"measurement": "in-gel fluorescence of HOIP RBR labeled by probe (15)", "setting": "[1]", "result": "significant reduction of the in-gel fluorescence of HOIP RBR"},
      {"measurement": "effect on cell viability", "setting": "[2]", "result": "neither compound had any effect on cell viability"}
    ]}
  ]
}
